Data published in patent publication US7906556B2, “Methods of treating amyloidosis using cyclopropyl derivative aspartyl protease inhibitors” (Elan Pharmaceuticals, Inc., priority 2005, dated 2011).
“And” between values parts separate entries of the source, which are not always exact repeats. Equal values may be shown once.

System: Madin-Darby Canine Kidney (MDCK) cells
Assay: In vitro permeability across a monolayer of MDCK cells in a transwell device
Format: in vitro ADME
Details: test compound 5 μM, 2 h at 37° C., apical to basolateral
Experimental: (§1) Compounds were evaluated for permeability across a monolayer of Madin-Darby Canine Kidney (MDCK) cells in a transwell device following culturing for 4 days. Cells were grown in Dulbecco's Modified Eagle Media with Glutamax (Invitrogen Cat #10569-010) with 10% Heat Inactivated Fetal Bovine Serum (media kitchen) and Penicillin/streptomycin 40 units/mL (media kitchen) at 37° C. and 5% CO2, and were plated into 12 mm diameter transwell plates (12 wells/plate, Costar Cat#3401). A 0.5 mL of cell suspension (400,000 cells/mL) was placed on membrane and a 1.5 mL media in the bottom wells on day 1. On day 2 and day 3, cells were fed with new media. On day 4, the lower chambers were filled with modified Hank's Balanced Salt Solution (mHBSS, media kitchen) with or without 5 μM Cyclosporin A (CspA, Sigma Cat#C-3662). Media was removed from upper chambers and filled with mHBSS with or without CspA, and incubated 30 min at 37° C. with light shaking. Donor chambers were emptied, and filled with test compound at 5 μM in mHBSS. Lucifer Yellow (100 μM, LY, Sigma Cat#L-0144) was added to all of the upper chambers to test for monolayer integrity (tight junctions). Plates were incubated for 2 h at 37° C. with shaking. After 2 h, both the donor and receiver wells were sampled. The bottom chambers were read in a fluorometer to assess LY leakage, and then the media from all wells were assayed by LC/MS/MS to determine compound levels.

Compound	Permeability Forward A > B
CC(=O)NC(Cc1cc(F)cc(F)c1)C(O)CNC1(CCOCC(C)(C)C)CC1C (single isomer, unassigned) [Example 3.8, N-(4-(2-methyl-1-(2-(neopentyloxy)ethyl)cyclopropylamino)-1-(3,5-difluorophenyl)-3-hydroxybutan-2-yl)acetamide]	11.84 ×10⁻⁶ cm/s
CC(=O)NC(Cc1cc(F)cc(F)c1)C(O)CNC1(C(=O)NCCC(C)(C)C)CC1 (stereo not drawn) [Example 3.4, 1-(3-acetamido-4-(3,5-difluorophenyl)-2-hydroxybutylamino)-N-(3,3-dimethylbutyl)cyclopropanecarboxamide]	4.56 ×10⁻⁶ cm/s

System: not listed separately
Assay: as above
Format: in vitro ADME, Canine
Details: dog, MDCK, test compound 5 μM, 2 h at 37° C., apical to basolateral, read-out: Permeability Forward A > B
Experimental: as §1

Compound	Papp A→B at 2 h, 5 μM
CC(=O)NC(Cc1cc(F)cc(F)c1)C(O)CNC1(CCOCC(C)(C)C)CC1C (single isomer, unassigned) [Example 3.7, N-(4-(2-methyl-1-(2-(neopentyloxy)ethyl)cyclopropylamino)-1-(3,5-difluorophenyl)-3-hydroxybutan-2-yl)acetamide]	8.18 ×10⁻⁶ cm/s
CC(=O)NC(Cc1cc(F)cc(F)c1)C(O)CNC1(COCCC(C)(C)C)C2CCCC21 (stereo not drawn) [Example 3.9, N-(1-(3,5-difluorophenyl)-4-(6-((3,3-dimethylbutoxy)methyl)bicyclo[3.1.0]hexan-6-ylamino)-3-hydroxybutan-2-yl)acetamide]	4.73 ×10⁻⁶ cm/s
CC(=O)NC(Cc1cc(F)cc(F)c1)C(O)CNC1(Cc2cc(C(C)(C)C)on2)CC1 (stereo not drawn) [Example 3.10, N-(4-(1-((5-tert-butylisoxazol-3-yl)methyl)cyclopropylamino)-1-(3,5-difluorophenyl)-3-hydroxybutan-2-yl)acetamide]	9.32 ×10⁻⁶ cm/s
CC(=O)NC(Cc1cc(F)cc(F)c1)C(O)CNC1(C/C=C/CC(C)(C)C)CC1 (stereo not drawn) [Example 3.12, N-(1-(3,5-difluorophenyl)-4-(1-(5,5-dimethylhex-2-enyl)cyclopropylamino)-3-hydroxybutan-2-yl)acetamide]	4.28 ×10⁻⁶ cm/s
CC(=O)NC(Cc1cc(F)cc(F)c1)C(O)CNC1(CCCCn2cccn2)CC1 (stereo not drawn) [Example 3.14, N-(4-(1-(4-(1H-pyrazol-1-yl)butyl)cyclopropylamino)-1-(3,5-difluorophenyl)-3-hydroxybutan-2-yl)acetamide]	3.47 ×10⁻⁶ cm/s
CC(=O)NC(Cc1cc(F)cc(F)c1)C(O)CNC1(C(=O)NCC(C)(C)C)CC1 (stereo not drawn) [Example 3.16, 1-(3-acetamido-4-(3,5-difluorophenyl)-2-hydroxybutylamino)-N-neopentylcyclopropanecarboxamide]	6.15 ×10⁻⁶ cm/s
CC(=O)NC(Cc1cc(F)cc(F)c1)C(O)CNC1(C(=O)N(C)c2ccccc2)CC1 (stereo not drawn) [Example 3.18, 1-(3-acetamido-4-(3,5-difluorophenyl)-2-hydroxybutylamino)-N-methyl-N-phenylcyclopropanecarboxamide]	4.56 ×10⁻⁶ cm/s
CC(=O)NC(Cc1cc(F)cc(F)c1)C(O)CNC1(Cc2c(F)cccc2F)CC1 (stereo not drawn) [Example 3.19, N-(4-(1-(2,6-difluorobenzyl)cyclopropylamino)-1-(3,5-difluorophenyl)-3-hydroxybutan-2-yl)acetamide]	19.1 ×10⁻⁶ cm/s
CC(=O)NC(Cc1cc(F)cc(F)c1)C(O)CNC1(Cc2ccccc2F)CC1 (stereo not drawn) [Example 3.20, N-(1-(3,5-difluorophenyl)-4-(1-(2-fluorobenzyl)cyclopropylamino)-3-hydroxybutan-2-yl)acetamide]	21.2 ×10⁻⁶ cm/s

Continued, values first:

Papp A→B at 2 h, 5 μM	Compound
4.33 ×10⁻⁶ cm/s	CC(=O)NC(Cc1cc(F)cc(F)c1)C(O)CNC1(CCCC(C)C)CC1 (stereo not drawn) [Example 3.2, N-(1-(3,5-difluorophenyl)-3-hydroxy-4-(1-(4-methylpentyl)cyclopropylamino)butan-2-yl)acetamide]
10.1 ×10⁻⁶ cm/s	CC(=O)NC(Cc1cc(F)cc(F)c1)C(O)CNC1(CSCC(C)(C)C)CC1 (stereo not drawn) [Example 3.3, N-(4-(1-((neopentylthio)methyl)cyclopropylamino)-1-(3,5-difluorophenyl)-3-hydroxybutan-2-yl)acetamide]
3.33 ×10⁻⁶ cm/s	CC(=O)NC(Cc1cc(F)cc(F)c1)C(O)CNC1(C(=O)NCCC(C)(C)C)CC1 (stereo not drawn) [Example 3.4, 1-(3-acetamido-4-(3,5-difluorophenyl)-2-hydroxybutylamino)-N-(3,3-dimethylbutyl)cyclopropanecarboxamide]
4.31 ×10⁻⁶ cm/s	CC(=O)NC(Cc1cc(F)cc(F)c1)C(O)CNC1(Cc2cn(CC(C)(C)C)nn2)CC1 (stereo not drawn) [Example 3.6, N-(1-(3,5-difluorophenyl)-3-hydroxy-4-(1-((1-neopentyl-1H-1,2,3-triazol-4-yl)methyl)cyclopropylamino)butan-2-yl)acetamide]
3.31 ×10⁻⁶ cm/s	CC(=O)NC(Cc1cc(F)cc(F)c1)C(O)CNC1(CCCCC(C)(C)C)CC1 (stereo not drawn) [Example 3.11, N-(1-(3,5-difluorophenyl)-4-(1-(5,5-dimethylhexyl)cyclopropylamino)-3-hydroxybutan-2-yl)acetamide]
4.39 ×10⁻⁶ cm/s	CC(=O)NC(Cc1cc(F)cc(F)c1)C(O)CNC1(CCCn2cccn2)CC1 (stereo not drawn) [Example 3.13, N-(4-(1-(3-(1H-pyrazol-1-yl)propyl)cyclopropylamino)-1-(3,5-difluorophenyl)-3-hydroxybutan-2-yl)acetamide]
9.74 ×10⁻⁶ cm/s	CC(=O)NC(Cc1cc(F)cc(F)c1)C(O)CNC1(CCOCC(C)(C)C)CC1 (stereo not drawn) [Example 3.15, N-(4-(1-(2-(neopentyloxy)ethyl)cyclopropylamino)-1-(3,5-difluorophenyl)-3-hydroxybutan-2-yl)acetamide]

System: beta-secretase versus catD
Assay: Selectivity of compounds for inhibiting BACE over catD (ratio of IC50 values)
Format: biochemical
Details: each value is an average of four experimental runs; multiple values = more than one experiment
Experimental: Investigation of potential beta-secretase inhibitors produced compounds with increased selectivity for beta-secretase over other aspartyl proteases such as cathepsin D (catD), cathepsin E (catE), Human Immunodeficiency Viral (HIV) protease, and renin. Selectivity was calculated as a ratio of inhibition (IC50) values in which the inhibition of beta-secretase was compared to the inhibition of other aspartyl proteases.
The compounds of formula (I) can be selective for beta-secretase versus catD.
In the following examples, each value is an average of four experimental runs and multiple values for one compound indicate that more than one experiment was conducted.

Compound	Selectivity IC50 catD/IC50 BACE
CC(=O)NC(Cc1cc(F)cc(F)c1)C(O)CNC1(CCC(C)C)C2CCCC21 (stereo not drawn) [Example 3.1, N-(4-(6-isopentylbicyclo[3.1.0]hexan-6-ylamino)-1-(3,5-difluorophenyl)-3-hydroxybutan-2-yl)acetamide]	> 3.7 and > 3.2
CC(=O)NC(Cc1cc(F)cc(F)c1)C(O)CNC1(CCCC(C)C)CC1 (stereo not drawn) [Example 3.2, N-(1-(3,5-difluorophenyl)-3-hydroxy-4-(1-(4-methylpentyl)cyclopropylamino)butan-2-yl)acetamide]	1.1

System: not listed separately
Assay: Brain to plasma ratio (AUC 0-6 h) in female FVB mice
Format: in vivo
Details: 100 mpk dose

Compound	Brain AUC (0-6 h)
CC(=O)NC(Cc1cc(F)cc(F)c1)C(O)CNC1(CCCC(C)(C)C)CC1 (stereo not drawn) [Example 3.5, N-(1-(3,5-difluorophenyl)-4-(1-(4,4-dimethylpentyl)cyclopropylamino)-3-hydroxybutan-2-yl)acetamide]	28 µM·h

Same assay, conditions: mouse, brain and plasma, 100 mg/kg, 100 mpk dose, AUC (0-6 h)

Compound	Kp
CC(=O)NC(Cc1cc(F)cc(F)c1)C(O)CNC1(CCCC(C)(C)C)CC1 (stereo not drawn) [Example 3.5, N-(1-(3,5-difluorophenyl)-4-(1-(4,4-dimethylpentyl)cyclopropylamino)-3-hydroxybutan-2-yl)acetamide]	2.1

Same assay, conditions: mouse, plasma, 100 mg/kg, 100 mpk dose

Compound	AUC(0-t)
CC(=O)NC(Cc1cc(F)cc(F)c1)C(O)CNC1(CCCC(C)(C)C)CC1 (stereo not drawn) [Example 3.5, N-(1-(3,5-difluorophenyl)-4-(1-(4,4-dimethylpentyl)cyclopropylamino)-3-hydroxybutan-2-yl)acetamide]	13 µM·h

Biological target: T1, P-gp (Mus musculus, UniProt P21447)
T1 construct: FVB wild-type littermates, which expresses P-gp at their blood-brain barrier (BBB); from tissue; host or cells: blood-brain barrier / brain of FVB wild-type mice, compared with mdr1 a/b (-/-) mice, in vivo
Assay: In vivo P-gp liability assessment in mdr1 a/b (-/-) and wild type FVB mouse
Details: mdr1 a/b (-/-) vs FVB wild-type mice, 2.5 mg/Kg IV, 5 min post administration, ratio of Cb/Cp
Experimental: Use of mdr1 (−/−) mouse and its FVB wild-type littermates, which expresses P-gp at their blood-brain barrier (BBB), can distinguish between a test compound of high P-gp liability from one with a more desirable low P-gp liability.
Test compounds are administered to both the mdr1 a/b (−/−) and the FVB wild-type mice (N=4/strain) intravenously at 2.5 mg/Kg through the tail vein. Plasma and brains are harvested at 5 min post administration. Test compound is extracted from tissue in parallel with calibration curves prepared from age-matched control tissues, then quantitated by LC/MS/MS. The ratio of brain concentration (Cb) to plasma concentration (Cp) is used as a measure of brain penetration according to the following formula: Brain Penetration (P)=Cb/Cp Therefore, a measure of brain penetration in the mdr1 (−/−) mouse relative to that of the wild-type animal represents an assessment of in vivo P-gp efflux, which is analogous to that determine in vitro with MDR1-MDCK cells. Calculations are made according to the following formula: Pmdr1/PFVB=In vivo Efflux

T1 sequence (P21447 whole entry): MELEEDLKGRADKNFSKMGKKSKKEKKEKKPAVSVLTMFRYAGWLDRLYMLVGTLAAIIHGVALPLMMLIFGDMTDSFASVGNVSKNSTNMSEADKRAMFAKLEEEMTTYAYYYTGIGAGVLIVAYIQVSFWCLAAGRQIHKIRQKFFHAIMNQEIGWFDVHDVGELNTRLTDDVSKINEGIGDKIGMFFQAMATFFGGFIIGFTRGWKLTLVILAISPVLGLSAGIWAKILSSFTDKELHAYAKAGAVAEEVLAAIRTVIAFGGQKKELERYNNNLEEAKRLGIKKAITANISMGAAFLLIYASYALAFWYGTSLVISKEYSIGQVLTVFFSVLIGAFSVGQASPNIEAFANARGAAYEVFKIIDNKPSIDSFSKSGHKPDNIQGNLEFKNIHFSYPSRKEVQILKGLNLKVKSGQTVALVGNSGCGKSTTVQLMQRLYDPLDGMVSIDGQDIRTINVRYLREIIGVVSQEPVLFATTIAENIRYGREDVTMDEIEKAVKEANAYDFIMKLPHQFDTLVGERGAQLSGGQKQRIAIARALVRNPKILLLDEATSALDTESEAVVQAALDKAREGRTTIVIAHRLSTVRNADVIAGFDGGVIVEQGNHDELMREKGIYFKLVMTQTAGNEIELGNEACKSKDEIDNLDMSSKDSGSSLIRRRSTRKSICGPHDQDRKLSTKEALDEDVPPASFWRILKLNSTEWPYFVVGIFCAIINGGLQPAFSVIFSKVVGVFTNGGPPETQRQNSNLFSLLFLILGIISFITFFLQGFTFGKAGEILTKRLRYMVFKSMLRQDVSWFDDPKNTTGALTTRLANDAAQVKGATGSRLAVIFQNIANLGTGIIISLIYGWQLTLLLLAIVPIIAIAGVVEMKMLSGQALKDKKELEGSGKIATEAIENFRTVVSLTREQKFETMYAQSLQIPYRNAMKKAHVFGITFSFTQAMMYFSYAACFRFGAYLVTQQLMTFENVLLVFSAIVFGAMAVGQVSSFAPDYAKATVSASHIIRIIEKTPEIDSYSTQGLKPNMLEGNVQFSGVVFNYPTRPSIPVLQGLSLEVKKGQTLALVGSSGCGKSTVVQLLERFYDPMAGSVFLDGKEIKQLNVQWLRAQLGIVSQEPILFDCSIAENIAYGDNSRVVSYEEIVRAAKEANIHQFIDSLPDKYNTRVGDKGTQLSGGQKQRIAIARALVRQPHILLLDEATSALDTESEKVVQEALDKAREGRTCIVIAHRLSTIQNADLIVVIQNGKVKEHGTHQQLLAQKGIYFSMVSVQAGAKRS

Compound	in vivo P-gp efflux (Pmdr1/PFVB)
CNCC[C@@H](Oc1ccccc1C)c1ccccc1 [atomoxetine]	1.17
